Measured values: patent publication EP4692071A1, “PHOTOCHROMIC COMPOUND, NAPHTHOL DERIVATIVE, CURABLE COMPOSITION, OPTICAL ARTICLE, LENS, AND EYEGLASS” (TOKUYAMA CORPORATION, priority 2023, dated 2024)
Where “and” joins values, the source holds several entries; their conditions need not be identical. Identical values can stand only once. One block for each compound: values may come before it.

Columns and labels:
Type in all cases: physicochemical
[1] = 35°C color optical density (A35): absorbancy difference ε(240)-ε(0) after 240 s light irradiation at 35°C; details: 240 s irradiation
Protocol: (§1) • [1] Maximum Absorption Wavelength (λmax): The maximum absorption wavelength after color development, measured using a spectrophotometer (instantaneous multichannel photodetector MCPD3000) manufactured by Otsuka Electronics Co., Ltd. was used as an indicator for the color tone during the color development. • [2] 23°C Color Optical Density (A23): A difference between an absorbancy measured after light irradiation at 23°C for 240 seconds {ε(240)} and an absorbancy without light irradiation ε(0) at the maximum absorption wavelength was used as an indicator for the color optical density. […] 35°C Color Optical Density (A35): A difference between an absorbancy measured after light irradiation at 35°C for 240 seconds {ε(240)} and an absorbancy without light irradiation ε(0) at the first and second absorption wavelengths was used as an indicator for the color optical density. […] 23°C color fading half-life [τ1/2 (sec.)]: A time required for the absorbancy of the sample at the maximum absorption wavelength to decrease to 1/2 of {ε(240)-ε(0)} when the light irradiation is terminated after the light irradiation at 23°C for 240 seconds, was used as an indicator for the color fading speed. The shorter this time, the higher the color fading speed. • [6] Residual rate (A90/A0×100): The obtained photochromic plastic lens was subjected to accelerated deterioration using a xenon weather meter X25 manufactured by Suga Test Instruments Co., Ltd. for 90 hours. Subsequently, the color optical density was evaluated before and after the test, then a color optical density before the test (A0) and a color optical density after the test (A90) were measured, and a ratio (A90/A0) was defined as a residual rate. The residual rate was used as an indicator for a color developing durability. The higher the residual rate, the higher the color developing durability.

[2] = Maximum absorption wavelength (λmax) after color development, spectrophotometer MCPD3000; details: for Maximum absorption wavelength: after color development
Protocol: as §1

[3] = 23°C color optical density (A23): absorbancy difference ε(240)-ε(0) after 240 s light irradiation at 23°C; details: 240 s irradiation
Protocol: as §1

[4] = High-temperature color development rate (A35/A23×100), temperature dependency
Protocol: as §1

[5] = Residual rate (A90/A0×100) after 90 h accelerated deterioration in xenon weather meter X25, color developing durability; details: for Residual rate (%): xenon weather meter 90 hours; for Residual rate: after 90 h accelerated deterioration
Protocol: as §1

[6] = photochromic laminate by coating method
[7] = photochromic laminate by coating method, 40 µm photochromic layer on thiourethane lens, 0.25 mmol compound per 100 g monomers
[8] = photochromic laminate by coating method, at the maximum absorption wavelength
[9] = photochromic cured product, thickness 1 mm (kneading method)
[10] = photochromic laminate prepared by coating method
[11] = cured product by kneading method, 1 mm

Compound: COc1ccc(C2(c3ccc(OC)cc3)C=Cc3c4c(c5cc(N6CCc7ccccc76)c(OC)cc5c3O2)-c2ccccc2C4(C)C)cc1 [Formula (28A)]
Maximum absorption wavelength ([2]; binder sheet (binder method)): 532 nm | Maximum absorption wavelength [2, 9]: 536 nm | Maximum absorption wavelength [2, 10]: 532 nm | A35/A23 *100 ([4]; binder sheet (binder method)): 74% | A35/A23 *100 [4, 9]: 75% | A35/A23 *100 [4, 10]: 74% | Residual rate ([5]; binder sheet (binder method)): 88% | Residual rate [5, 9]: 79% | Residual rate [5, 10]: 74%

Compound: COc1ccc(C2(c3ccc(N4CCOCC4)cc3)C=Cc3c4c(c5cc(N6CCc7ccccc76)c(C)cc5c3O2)-c2ccc(OC)cc2C4(CCCC(F)(F)F)CCCC(F)(F)F)cc1 (centres unmarked) [Formula (45A)]
Maximum absorption wavelength [2, 10]: 489 nm and 596 nm | A35/A23 *100 [4, 10]: 67% | Residual rate [5, 10]: 65%

Compound: CCC1(CC)CCC2(CC1)c1cc(-c3ccccc3)ccc1-c1c2c2c(c3cc(OC)c(N4CCc5ccccc54)cc13)OC(c1ccc(C)cc1)(c1ccc(N(C)c3ccccc3)cc1)C=C2 (centres unmarked) [Formula (60A)]
Maximum absorption wavelength [2, 10]: 535 nm and 595 nm | A35/A23 *100 [4, 10]: 71% | Residual rate [5, 10]: 69%

Compound: COc1ccc(C2(c3ccc(OC)cc3)C=Cc3c4c(c5cc(N6CCc7cc(C)ccc76)c(OC)cc5c3O2)-c2ccccc2C4(C)C)cc1 [Formula (52A)]
Maximum absorption wavelength ([2]; binder sheet (binder method)): 535 nm | Maximum absorption wavelength [2, 9]: 539 nm | Maximum absorption wavelength [2, 10]: 535 nm | A35/A23 *100 ([4]; binder sheet (binder method)): 75% | A35/A23 *100 [4, 9]: 76% | A35/A23 *100 [4, 10]: 75% | Residual rate ([5]; binder sheet (binder method)): 92% | Residual rate [5, 9]: 82% | Residual rate [5, 10]: 76%

The remaining lines, values ahead:

A35 (-) [1, 6]: 0.49 - and 0.54 - | Maximum absorption wavelength (nm) [2, 7]: 457 nm and 592 nm | A23 (-) [3, 8]: 0.75 - and 0.82 - | A35/A23 *100 (%) [4, 6]: 66% | Residual rate (%) [5, 6]: 76%
Compound: COCCOCCOCCC1(CCOCCOCCOC)c2cc(-c3ccc(OC(C)C)cc3)ccc2-c2c1c1c(c3cc(OC)c(N(C)c4ccc(C(F)(F)F)cc4)cc23)OC(c2ccc(OC)cc2)(c2ccc(OC)cc2)C=C1 [Example 53 Formula (121)]

Maximum absorption wavelength ([2]; binder sheet (binder method)): 522 nm | Maximum absorption wavelength [2, 9]: 526 nm | Maximum absorption wavelength [2, 10]: 522 nm | A35/A23 *100 ([4]; binder sheet (binder method)): 72% | A35/A23 *100 [4, 9]: 73% | A35/A23 *100 [4, 10]: 71% | Residual rate ([5]; binder sheet (binder method)): 84% | Residual rate [5, 9]: 74% | Residual rate [5, 10]: 71%
Compound: COc1ccc(C2(c3ccc(OC)cc3)C=Cc3c4c(c5cc(N6CCc7ccccc76)c(-c6ccc(OC)cc6OC)cc5c3O2)-c2ccccc2C4(C)C)cc1 [Formula (I), reference compound]

A35 (-) ([1]; binder sheet (binder method)): 0.76 - | A35 (-) [1, 11]: 0.77 - | A35 (-) [1, 6]: 0.74 - | Maximum absorption wavelength (nm) ([2]; binder sheet (binder method), urethaneurea resin photochromic layer between polycarbonate sheets, 0.25 mmol per 100 parts by mass resin): 498 nm | Maximum absorption wavelength (nm) ([2]; photochromic cured product by kneading method, 1 mm thick thiourethane, 0.106 mmol per 100 g monomers): 502 nm | Maximum absorption wavelength (nm) [2, 7]: 498 nm | A23 (-) ([3]; binder sheet (binder method)): 1.11 - | A23 (-) [3, 11]: 1.12 - | A23 (-) [3, 8]: 1.0897 - | A35/A23 *100 (%) ([4]; binder sheet (binder method)): 68% | A35/A23 *100 (%) [4, 11]: 69% | A35/A23 *100 (%) [4, 6]: 68% | Residual rate (%) ([5]; binder sheet (binder method)): 97% | Residual rate (%) [5, 11]: 90% | Residual rate (%) [5, 6]: 84%
Compound: CCCC1(CCC)c2ccccc2-c2c1c1c(c3cc(OC)c(N(C)c4ccccc4)cc23)OC(c2ccc(OC)cc2)(c2ccc(OC)cc2)C=C1 [Example 3 Formula (32)]

Maximum absorption wavelength ([2]; binder sheet (binder method)): 533 nm | Maximum absorption wavelength [2, 9]: 537 nm | Maximum absorption wavelength [2, 10]: 533 nm | A35/A23 *100 ([4]; binder sheet (binder method)): 75% | A35/A23 *100 [4, 9]: 76% | A35/A23 *100 [4, 10]: 75% | Residual rate ([5]; binder sheet (binder method)): 85% | Residual rate [5, 9]: 76% | Residual rate [5, 10]: 71%
Compound: COCCCC1(CCCOC)c2ccccc2-c2c1c1c(c3cc(OC)c(N4CC(C)c5ccccc54)cc23)OC(c2ccc(OC)cc2)(c2ccc(OC)cc2)C=C1 (centres unmarked) [Formula (39A)]

Maximum absorption wavelength ([2]; binder sheet (binder method)): 539 nm | Maximum absorption wavelength [2, 10]: 539 nm | A35/A23 *100 ([4]; binder sheet (binder method)): 62% | A35/A23 *100 [4, 10]: 62% | Residual rate ([5]; binder sheet (binder method)): 84% | Residual rate [5, 10]: 69%
Compound: CCCCCCOc1ccc(C2(c3ccc(OCCCCCC)cc3)C=Cc3c4c(c5cc(N6CCc7cc(OC)ccc76)c(OC)cc5c3O2)-c2ccc(-c3ccc(C(F)(F)F)cc3)cc2C42CC(C)(C)CC(C)(C)C2)cc1 [Formula (48A)]
